Measurements as given in patent US10774097B2, “Boron compounds as inhibitors of lipoxygenase and the lipoxygenase pathway, and preparation and use thereof” (UNIVERSITÄT LEIPZIG, priority 2015, dated 2020).
Converted amounts (≈) assume the structure as drawn. Read-outs that look alike come from different tables or passages of the source.

Tests used:
B16 [1] = experiment: Cytotoxicity crystal violet (CV) assay, B16; format: cell-based; details: CV assay (bottom value)
Protocol: (§1) In order to determine the cytotoxicity towards various cancer cell lines, MTT and crystal violet (CV) assays were carried out. The MTT essay takes place as specified by T. Mosmann [T. Mosmann, J. Immunol. Methods, 1983, 65, 55], and the CV test takes place as specified by D. A. Flick et al. [D. A. Flick, G. E. Gifford, J. Immunol. Methods, 1984, 68, 167].
(§2) In these tests, the percentage of dead cells was analysed on the basis of the concentration of the inhibitors. The obtained IC50 value indicates the concentration of a particular inhibitor at which 50% of the analysed cells die off.
(§3) Meanwhile, in the crystal violet assay, the crystal violet dye can only diffuse through the perforated cell membranes of dead cells. In this case, the number of dyed cells represents the number of dead cells.
(§4) Three skin cancer cell lines (A375, B16, B16F10) and three colon cancer cell lines (CT26CL25, HCT116, SW480) were analysed. Primary fibroblasts from human lung tissue (MRC-5) were used as an example of healthy cells and thus as a negative control.
(§5) The top value for each cell represents the IC50 value in the MTT assay, and the bottom value represents the IC50 value in the CV assay (crystal violet).

[2] = test system: primary fibroblasts (MRC-5); experiment: Cytotoxicity MTT assay, MRC-5; format: cell-based, human
Protocol: as §1, §2
(§6) The proportion of living cells was determined by the MTT assay (3-(4,5-dimethylthiazolyl-2)-2,5-diphenyltetrazoliumbromide) and the crystal violet (CV) assay. In the MTT assay, the presence of NADH and NADPH is established. These two compounds are characteristic metabolism products in a functioning respiratory chain. NADH and NADPH reduce the MTT dye, thus leading to a change in colour, which can be measured and is thus directly proportional to the number of living cells.
as §4, §5

[3] = Solubility tests in ethanol and DMSO; format: physicochemical; details: solvent added until clear solution; for solubility: organic solvent or mixture, thermodynamic from solid
Protocol: Solubility tests in ethanol and DMSO were carried out to determine the solubility. The amount of solvent required to obtain a clear solution was added to 4 mg of the compounds in an Eppendorf tube. The concentration of the solution was then determined on the basis of the mass of the compounds and the amount of solvent.

5-LOX = biological target: T1, 5-LOX (Homo sapiens, UniProt P09917); experiment: Inhibition test: 5-LOX activity in intact polymorphonuclear leukocytes (arachidonic acid conversion, HPLC); format: cell-based; details: 5-LOX-FLAP enzyme system, 15 min at 37° C., read-out: IC50 value (at concentration)
T1 construct: endogenous in cells; host or cells: intact polymorphonuclear leukocytes isolated from blood
T1 sequence (P09917 1-674): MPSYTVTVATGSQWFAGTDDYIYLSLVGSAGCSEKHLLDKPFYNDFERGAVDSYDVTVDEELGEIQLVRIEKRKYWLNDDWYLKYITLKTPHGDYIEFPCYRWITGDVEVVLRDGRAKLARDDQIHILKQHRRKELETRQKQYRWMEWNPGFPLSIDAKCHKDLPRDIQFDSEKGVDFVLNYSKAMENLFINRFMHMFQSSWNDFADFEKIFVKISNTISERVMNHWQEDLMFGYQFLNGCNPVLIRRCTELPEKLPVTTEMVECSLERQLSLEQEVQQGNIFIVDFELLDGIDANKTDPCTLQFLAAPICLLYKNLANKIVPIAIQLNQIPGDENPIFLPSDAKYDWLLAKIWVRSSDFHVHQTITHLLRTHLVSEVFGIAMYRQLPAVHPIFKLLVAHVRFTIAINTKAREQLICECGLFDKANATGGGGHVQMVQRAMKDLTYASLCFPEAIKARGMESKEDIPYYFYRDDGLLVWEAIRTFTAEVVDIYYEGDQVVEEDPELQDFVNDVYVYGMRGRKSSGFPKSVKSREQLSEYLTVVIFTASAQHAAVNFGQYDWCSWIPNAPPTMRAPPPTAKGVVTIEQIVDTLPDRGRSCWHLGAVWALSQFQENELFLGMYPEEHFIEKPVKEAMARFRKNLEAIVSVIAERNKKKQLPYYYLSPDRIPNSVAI
Protocol: The 5-LOX activity of the cells was established on the basis of the concentration of inhibitor.
In this process, intact polymorphonuclear leukocytes were isolated from blood as specified in the known literature [C. Greiner et al., British Journal of Pharmacology, 2011, 164, 781-793]. The cells were grown on cell sheets until a confluence of 95% was reached, i.e. 95% of the cell sheets was covered with cells. Each cell sheet was then treated with 10 μl of a solution of the inhibitor at concentrations of 0.05 μM, 0.1 μM, 0.5 μM, 1 μM, 5 μM, 10 μM, 50 μM and 100 μM at 37° C. for 15 minutes. Each cell sheet was then treated with an arachidonic acid solution for 10 minutes. 10 μl of a 1:1 mixture of 2 mM of arachidonic acid and 250 μM of A23187 Ca^2+-ionophore solution in ethanol was used for this.
Conversion of a small amount of arachidonic acid is evidence of a strong inhibiting effect.

A375 [4] = experiment: Cytotoxicity MTT assay, A375; format: cell-based
Protocol: as §1, §2, §6, §4, §5

A375 [5] = experiment: Cytotoxicity crystal violet (CV) assay, A375; format: cell-based; details: CV assay (bottom value)
Protocol: as §1, §2, §3, §4, §5

CT26CL25 [6] = experiment: Cytotoxicity MTT assay, CT26CL25; format: cell-based; details: MTT assay (top value)
Protocol: as §1, §2, §6, §4, §5

B16 [7] = experiment: Cytotoxicity MTT assay, B16; format: cell-based; details: MTT assay (top value)
Protocol: as §1, §2, §6, §4, §5

HCT116 [8] = experiment: Cytotoxicity MTT assay, HCT116; format: cell-based; details: MTT assay (top value)
Protocol: as §1, §2, §6, §4, §5

CT26CL25 [9] = experiment: Cytotoxicity crystal violet (CV) assay, CT26CL25; format: cell-based; details: CV assay (bottom value)
Protocol: as §1, §2, §3, §4, §5

HCT116 [10] = experiment: Cytotoxicity crystal violet (CV) assay, HCT116; format: cell-based; details: CV assay (bottom value)
Protocol: as §1, §2, §3, §4, §5

SW480 [11] = experiment: Cytotoxicity crystal violet (CV) assay, SW480; format: cell-based; details: CV assay (bottom value)
Protocol: as §1, §2, §3, §4, §5

SW480 [12] = experiment: Cytotoxicity MTT assay, SW480; format: cell-based; details: MTT assay (top value)
Protocol: as §1, §2, §6, §4, §5

[13] = test system: various cancer cell lines; experiment: Cytotoxicity tests on cancer cell lines (summary in words); details: comparison with phenyl-based compounds
Protocol: as §1, §2, §4

[14] = MTT assay (top value), read-out: IC50 A375

In the case of “1-(7-Thiomethylquinolin-2-yl-1,7-dicarba-closo-dodecaboran(12)yl)-hexan-1-ol [Embodiment 5]”, the IC50 (B16 [1]) is reported as over 50 µM, the “selectiveness between healthy cells and cancer cells” value ([2]; IC50 for healthy cells (MRC-5) divided by IC50 for cancer cells (A375)) is reported as 10.2 and the IC50 ([2]; read-out: IC50 value for healthy cells (MRC-5)) is reported as 82 µM. The “Solubility in DMSO” value ([3]; DMSO) was 953.9 mmol/L, the “Solubility in EtOH” value ([3]; ethanol) was 238.5 mmol/L and the IC50 (5-LOX) was 2500 nM. For the same molecule, the IC50 (A375 [4]; read-out: IC50 value for A375 cancer cells) was 8 µM, the IC50 (A375 [5]) was 30.5 µM and the IC50 (CT26CL25 [6]) was 46 µM. The IC50 (B16 [7]) was 50 µM, the IC50 (HCT116 [8]) was 45 µM and the IC50 (CT26CL25 [9]) was 50 µM. The IC50 (HCT116 [10]) was over 50 µM, the IC50 (SW480 [11]) was over 50 µM and the IC50 (SW480 [12]) was 33.1 µM.
In the case of “1-((7-Quinolin-2-ylmethoxy)-1,7-dicarba-closo-dodecaboran(12)yl)-hexan-1-ol [Embodiment 3]”, the “Solubility in DMSO” value ([3]; DMSO) is reported as 208.3 mmol/L, the “Solubility in EtOH” value ([3]; ethanol) is reported as 86.8 mmol/L and the IC50 (5-LOX) is reported as 1400 nM. For the same molecule, the “cytotoxicity towards cancer cell lines (in words)” value [13] was “considerably higher cytotoxicity”.
In the case of “1-(Quinolin-2-ylmethyl)thio-1,7-dicarba-closo-dodecaborane(12) [Comparative Example 2]”, the IC50 (B16 [1]) is reported as over 50 µM, the “Solubility in DMSO” value ([3]; DMSO) is reported as 600 mmol/L and the “Solubility in EtOH” value ([3]; ethanol) is reported as 67 mmol/L. The IC50 (5-LOX) was 5800 nM, the “cytotoxicity towards cancer cell lines (in words)” value [13] was “insufficient cytotoxicity” and the IC50 (A375 [4]; [14]) was 30 µM. For the same molecule, the IC50 (A375 [5]) was 34.8 µM, the IC50 (CT26CL25 [6]) was over 50 µM and the IC50 (B16 [7]) was over 50 µM. The IC50 (HCT116 [8]) was over 50 µM, the IC50 (CT26CL25 [9]) was over 50 µM and the IC50 (HCT116 [10]) was over 50 µM. For the same molecule, the IC50 (SW480 [11]) was over 50 µM.
For “1-Quinolin-2-ylmethoxy-1,12-dicarba-closo-dodecaborane(12) [Comparative Example 3]”, the IC50 (B16 [1]) was 46 µM, the IC50 ([2]; single value in cell, unit inferred, top value = MTT assay, read-out: IC50 MRC-5) was over 100 µM and the “Solubility in DMSO” value ([3]; DMSO) was 208.3 mmol/L. The “Solubility in EtOH” value ([3]; ethanol) was 86.8 mmol/L, the IC50 (5-LOX) was 1400 nM and the IC50 (A375 [4]; [14]) was 8.8 µM. It also gave an IC50 (A375 [5]) of 26.9 µM, an IC50 (CT26CL25 [6]) of 35 µM and an IC50 (B16 [7]) of 45.7 µM. It also gave an IC50 (CT26CL25 [9]) of 50 µM, an IC50 (HCT116 [10]) of over 50 µM and an IC50 (SW480 [12]) of 29 µM.
In the case of CCCCCC(O)c1cccc(OCc2ccc3ccccc3n2)c1 (stereo not drawn) [Rev-5901, reference compound], the IC50 (B16 [1]; Mus musculus, B16) is reported as 45 µM, the IC50 ([2]; Homo sapiens, MRC5, MTT assay (top value), healthy cells, read-out: IC50 MRC-5) is reported as 70.1 µM and the IC50 ([2]; Homo sapiens, MRC5, read-out: IC50 value for healthy cells (MRC-5)) is reported as 70 µM. The solubility ([3]; DMSO, read-out: Solubility in DMSO) was 29.8 mM (≈ 10000 µg/mL), the solubility ([3]; ethanol, read-out: Solubility in EtOH) was 29.7 mM (≈ 9960 µg/mL) and the IC50 (A375 [4]; Homo sapiens, A-375, MTT assay (top value), read-out: IC50 A375) was 25 µM. For the same molecule, the IC50 (A375 [4]; Homo sapiens, A-375, depending on the method of analysis used (MTT/CV), read-out: IC50 values towards melanoma cancer cell line A375) was 25 to 50 µM, the IC50 (A375 [5]; Homo sapiens, A-375) was 46.5 µM and the IC50 (CT26CL25 [6]) was 28.1 µM. It also gave an IC50 (B16 [7]; Mus musculus, B16) of 27.6 µM, an IC50 (HCT116 [8]; Homo sapiens, HCT-116) of 50 µM and an IC50 (CT26CL25 [9]) of over 50 µM. The IC50 (HCT116 [10]; Homo sapiens, HCT-116) was 50 µM, the IC50 (SW480 [11]; Homo sapiens, SW480) was over 50 µM and the IC50 (SW480 [12]; Homo sapiens, SW480) was 50 µM.
With “1-(Quinolin-2-ylmethoxy)-1,7-dicarba-closo-dodecaborane(12) [Comparative Example 1]” the IC50 (B16 [1]) was 47.6 µM, the “Solubility in DMSO” value ([3]; DMSO) was 432 mmol/L and the “Solubility in EtOH” value ([3]; ethanol) was 72 mmol/L. The IC50 (5-LOX) was 2300 nM, the “cytotoxicity towards cancer cell lines (in words)” value [13] was “insufficient cytotoxicity” and the IC50 (A375 [4]; [14]) was 50 µM. For the same molecule, the IC50 (A375 [5]) was over 50 µM, the IC50 (CT26CL25 [6]) was over 50 µM and the IC50 (B16 [7]) was 47.4 µM. The IC50 (HCT116 [8]) was over 50 µM, the IC50 (CT26CL25 [9]) was over 50 µM and the IC50 (SW480 [11]) was over 50 µM. The IC50 (SW480 [12]) was over 50 µM.
